Test results from US10428044B2, “3-amino-1,5,6,7-tetrahydro-4H-indol-4-ones” (Bayer Pharma Aktiengesellschaft, priority 2014, dated 2019).

Biological target: (recombinant) catalytic domain of human Bub1 (amino acids 704-1085) (Homo sapiens (Human), UniProt O43683)
Experiment: Bub1 kinase assay (TR-FRET)
Assay type: biochemical
Conditions: ATP 10 μM final, peptide substrate 1 μM final, 60 min at 22° C., read-out: Biological Assay: Bub1 kinase assay median IC50
How it was run: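 Readout was TR-FRET between a Eu-labeled antibody complex recognizing phosphoserine and streptavidin-XL665 on the biotinylated peptide, after EDTA stop and 1 h at 22° C. The kinase reaction ran for 60 min at 22° C. Values are means or medians of repeat tests, from 4-parameter fits normalized to enzyme-free and inhibitor-free controls.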

Chain of (recombinant) catalytic domain of human Bub1 (amino acids 704-1085) (O43683 704-1085): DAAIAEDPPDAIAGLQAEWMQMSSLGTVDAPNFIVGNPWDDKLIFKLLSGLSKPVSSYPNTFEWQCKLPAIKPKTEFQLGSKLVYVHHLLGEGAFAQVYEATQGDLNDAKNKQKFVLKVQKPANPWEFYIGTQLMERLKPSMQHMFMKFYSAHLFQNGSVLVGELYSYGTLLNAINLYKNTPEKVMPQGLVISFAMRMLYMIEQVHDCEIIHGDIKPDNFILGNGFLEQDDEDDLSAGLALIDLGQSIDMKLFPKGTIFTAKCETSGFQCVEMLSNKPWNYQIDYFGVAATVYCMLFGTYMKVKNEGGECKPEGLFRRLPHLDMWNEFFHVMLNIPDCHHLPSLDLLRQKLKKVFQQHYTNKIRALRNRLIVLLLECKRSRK

| SMILES | IC50 |
| --- | --- |
| CCCCOCC(=O)Nc1cc(-c2[nH]c3c(c2Nc2ccccc2)C(=O)CCC3)ccn1 [Example 333, 2-butoxy-N-{4-[4-oxo-3-(phenylamino)-4,5,6,7-tetrahydro-1H-indol-2-yl]pyridin-2-yl}acetamide] | 7.33 nM |
| O=C(COc1ccccc1)Nc1cc(-c2[nH]c3c(c2Nc2ccccc2)C(=O)CCC3)ccn1 [Example 337, N-{4-[4-oxo-3-(phenylamino)-4,5,6,7-tetrahydro-1H-indol-2-yl]pyridin-2-yl}-2-phenoxyacetamide] | 22.9 nM |
| O=C(COc1cccc(F)c1)Nc1cc(-c2[nH]c3c(c2Nc2ccccc2)C(=O)CCC3)ccn1 [Example 338, 2-(3-fluorophenoxy)-N-{4-[4-oxo-3-(phenylamino)-4,5,6,7-tetrahydro-1H-indol-2-yl]pyridin-2-yl}acetamide] | 31.6 nM |
| O=C(COc1ccccc1F)Nc1cc(-c2[nH]c3c(c2Nc2ccccc2)C(=O)CCC3)ccn1 [Example 339, 2-(2-fluorophenoxy)-N-{4-[4-oxo-3-(phenylamino)-4,5,6,7-tetrahydro-1H-indol-2-yl]pyridin-2-yl}acetamide] | 39.4 nM |
| O=C(COc1ccsc1)Nc1cc(-c2[nH]c3c(c2Nc2ccccc2)C(=O)CCC3)ccn1 [Example 344, N-{4-[4-oxo-3-(phenylamino)-4,5,6,7-tetrahydro-1H-indol-2-yl]pyridin-2-yl}-2-(thiophen-3-yloxy)acetamide] | 19.8 nM |
| O=C(COc1ccsc1Cl)Nc1cc(-c2[nH]c3c(c2Nc2ccccc2)C(=O)CCC3)ccn1 [Example 345, 2-[(2-chlorothiophen-3-yl)oxy]-N-{4-[4-oxo-3-(phenylamino)-4,5,6,7-tetrahydro-1H-indol-2-yl]pyridin-2-yl}acetamide] | 72.5 nM |
| O=C(COc1ccccn1)Nc1cc(-c2[nH]c3c(c2Nc2ccccc2)C(=O)CCC3)ccn1 [Example 347, N-{4-[4-oxo-3-(phenylamino)-4,5,6,7-tetrahydro-1H-indol-2-yl]pyridin-2-yl}-2-(pyridin-2-yloxy)acetamide] | 101 nM |
| O=C(COc1ccon1)Nc1cc(-c2[nH]c3c(c2Nc2ccccc2)C(=O)CCC3)ccn1 [Example 348, 2-(1,2-oxazol-3-yloxy)-N-{4-[4-oxo-3-(phenylamino)-4,5,6,7-tetrahydro-1H-indol-2-yl]pyridin-2-yl}acetamide] | 10.2 nM |
| Cc1nnc(COCC(=O)Nc2cc(-c3[nH]c4c(c3Nc3ccccc3)C(=O)CCC4)ccn2)o1 [Example 353, 2-[(5-methyl-1,3,4-oxadiazol-2-yl)methoxy]-N-{4-[4-oxo-3-(phenylamino)-4,5,6,7-tetrahydro-1H-indol-2-yl]pyridin-2-yl}acetamide] | 14.4 nM |
| CC(=O)Nc1cc(-c2[nH]c3c(c2Nc2ccccc2)C(=O)CC(C)(C)C3)ncn1 [Example 357, N-{6-[6,6-dimethyl-4-oxo-3-(phenylamino)-4,5,6,7-tetrahydro-1H-indol-2-yl]pyrimidin-4-yl}acetamide] | 3080 nM |
| CNc1cc(-c2[nH]c3c(c2Nc2ccccc2)C(=O)CCC3)ccn1 [Example 358, 2-[2-(methylamino)pyridin-4-yl]-3-(phenylamino)-1,5,6,7-tetrahydro-4H-indol-4-one] | 1130 nM |
| CC1(C)CC(=O)c2c([nH]c(-c3ccnc(NC4CCC4)c3)c2Nc2ccccc2)C1 [Example 359, 2-[2-(cyclobutylamino)pyridin-4-yl]-6,6-dimethyl-3-(phenylamino)-1,5,6,7-tetrahydro-4H-indol-4-one] | 208 nM |
| CC1(C)CC(=O)c2c([nH]c(-c3ccnc(N4CCC4)c3)c2Nc2ccccc2)C1 [Example 360, 2-[2-(azetidin-1-yl)pyridin-4-yl]-6,6-dimethyl-3-(phenylamino)-1,5,6,7-tetrahydro-4H-indol-4-one] | 12700 nM |
| CC1(C)CC(=O)c2c([nH]c(-c3ccnc(NCC(F)(F)F)c3)c2Nc2ccccc2)C1 [Example 361, 6,6-dimethyl-3-(phenylamino)-2-{2-[(2,2,2-trifluoroethyl)amino]pyridin-4-yl}-1,5,6,7-tetrahydro-4H-indol-4-one] | 600 nM |
| CC1(C)CC(=O)c2c([nH]c(-c3ccnc(NCCC(F)(F)F)c3)c2Nc2ccccc2)C1 [Example 362, 6,6-dimethyl-3-(phenylamino)-2-{2-[(3,3,3-trifluoropropyl)amino]pyridin-4-yl}-1,5,6,7-tetrahydro-4H-indol-4-one] | 392 nM |
| CC(Nc1cc(-c2[nH]c3c(c2Nc2ccccc2)C(=O)CC(C)(C)C3)ccn1)C(F)F (stereo not drawn) [Example 363, 2-(2-{[1,1-difluoropropan-2-yl]amino}pyridin-4-yl)-6,6-dimethyl-3-(phenylamino)-1,5,6,7-tetrahydro-4H-indol-4-one] | 207 nM |
| CC(C)Nc1cc(-c2[nH]c3c(c2Nc2ccccc2)C(=O)CCC3)ccn1 [Example 364, 3-(phenylamino)-2-[2-(propan-2-ylamino)pyridin-4-yl]-1,5,6,7-tetrahydro-4H-indol-4-one] | 502 nM |
| O=C1CCCc2[nH]c(-c3ccnc(NCCC(F)(F)F)c3)c(Nc3ccccc3)c21 [Example 365, 3-(phenylamino)-2-{2-[(3,3,3-trifluoropropyl)amino]pyridin-4-yl}-1,5,6,7-tetrahydro-4H-indol-4-one] | 604 nM |

More lines, now with the values ahead:

| IC50 | SMILES |
| --- | --- |
| 9.36 nM | CCOCC(=O)Nc1cc(-c2[nH]c3c(c2Nc2ccccc2)C(=O)CCC3)ccn1 [Example 334, 2-ethoxy-N-{4-[4-oxo-3-(phenylamino)-4,5,6,7-tetrahydro-1H-indol-2-yl]pyridin-2-yl}acetamide] |
| 9.9 nM | C=CCOCC(=O)Nc1cc(-c2[nH]c3c(c2Nc2ccccc2)C(=O)CCC3)ccn1 [Example 335, N-{4-[4-oxo-3-(phenylamino)-4,5,6,7-tetrahydro-1H-indol-2-yl]pyridin-2-yl}-2-(prop-2-en-1-yloxy)acetamide] |
| 8.53 nM | C#CCOCC(=O)Nc1cc(-c2[nH]c3c(c2Nc2ccccc2)C(=O)CCC3)ccn1 [Example 336, N-{4-[4-oxo-3-(phenylamino)-4,5,6,7-tetrahydro-1H-indol-2-yl]pyridin-2-yl}-2-(prop-2-yn-1-yloxy)acetamide] |
| 7.25 nM | O=C(COCc1ccccc1)Nc1cc(-c2[nH]c3c(c2Nc2ccccc2)C(=O)CCC3)ccn1 [Example 340, 2-(benzyloxy)-N-{4-[4-oxo-3-(phenylamino)-4,5,6,7-tetrahydro-1H-indol-2-yl]pyridin-2-yl}acetamide] |
| 7.89 nM | O=C(COCc1ccc(F)cc1)Nc1cc(-c2[nH]c3c(c2Nc2ccccc2)C(=O)CCC3)ccn1 [Example 341, 2-[(4-fluorobenzyl)oxy]-N-{4-[4-oxo-3-(phenylamino)-4,5,6,7-tetrahydro-1H-indol-2-yl]pyridin-2-yl}acetamide] |
| 7.12 nM | COc1ccc(COCC(=O)Nc2cc(-c3[nH]c4c(c3Nc3ccccc3)C(=O)CCC4)ccn2)cc1 [Example 342, 2-[(4-methoxybenzyl)oxy]-N-{4-[4-oxo-3-(phenylamino)-4,5,6,7-tetrahydro-1H-indol-2-yl]pyridin-2-yl}acetamide] |
| 8.45 nM | O=C(COC[C@@H]1CCCCO1)Nc1cc(-c2[nH]c3c(c2Nc2ccccc2)C(=O)CCC3)ccn1 [Example 343, N-{4-[4-oxo-3-(phenylamino)-4,5,6,7-tetrahydro-1H-indol-2-yl]pyridin-2-yl}-2-[(2S)-tetrahydro-2H-pyran-2-ylmethoxy]acetamide] |
| 9.88 nM | Cc1cc(OCC(=O)Nc2cc(-c3[nH]c4c(c3Nc3ccccc3)C(=O)CCC4)ccn2)no1 [Example 346, 2-[(5-methyl-1,2-oxazol-3-yl)oxy]-N-{4-[4-oxo-3-(phenylamino)-4,5,6,7-tetrahydro-1H-indol-2-yl]pyridin-2-yl}acetamide] |
| 8.19 nM | Cc1noc(COCC(=O)Nc2cc(-c3[nH]c4c(c3Nc3ccccc3)C(=O)CCC4)ccn2)n1 [Example 349, 2-[(3-methyl-1,2,4-oxadiazol-5-yl)methoxy]-N-{4-[4-oxo-3-(phenylamino)-4,5,6,7-tetrahydro-1H-indol-2-yl]pyridin-2-yl}acetamide] |
| 6.53 nM | Cc1cc(COCC(=O)Nc2cc(-c3[nH]c4c(c3Nc3ccccc3)C(=O)CCC4)ccn2)on1 [Example 350, 2-[(3-methyl-1,2-oxazol-5-yl)methoxy]-N-{4-[4-oxo-3-(phenylamino)-4,5,6,7-tetrahydro-1H-indol-2-yl]pyridin-2-yl}acetamide] |
| 6.22 nM | Cn1nccc1COCC(=O)Nc1cc(-c2[nH]c3c(c2Nc2ccccc2)C(=O)CCC3)ccn1 [Example 351, 2-[(1-methyl-1H-pyrazol-5-yl)methoxy]-N-{4-[4-oxo-3-(phenylamino)-4,5,6,7-tetrahydro-1H-indol-2-yl]pyridin-2-yl}acetamide] |
| 6.68 nM | O=C(COCc1ccco1)Nc1cc(-c2[nH]c3c(c2Nc2ccccc2)C(=O)CCC3)ccn1 [Example 352, 2-(furan-2-ylmethoxy)-N-{4-[4-oxo-3-(phenylamino)-4,5,6,7-tetrahydro-1H-indol-2-yl]pyridin-2-yl}acetamide] |
| 6.57 nM | Cc1cc(COCC(=O)Nc2cc(-c3[nH]c4c(c3Nc3ccccc3)C(=O)CCC4)ccn2)no1 [Example 354, 2-[(5-methyl-1,2-oxazol-3-yl)methoxy]-N-{4-[4-oxo-3-(phenylamino)-4,5,6,7-tetrahydro-1H-indol-2-yl]pyridin-2-yl}acetamide] |
| 6.45 nM | Cc1cnc(COCC(=O)Nc2cc(-c3[nH]c4c(c3Nc3ccccc3)C(=O)CCC4)ccn2)o1 [Example 355, 2-[(5-methyl-1,3-oxazol-2-yl)methoxy]-N-{4-[4-oxo-3-(phenylamino)-4,5,6,7-tetrahydro-1H-indol-2-yl]pyridin-2-yl}acetamide] |
| 7.91 nM | Cc1nnc(COCC(=O)Nc2cc(-c3[nH]c4c(c3Nc3ccccc3)C(=O)CCC4)ccn2)s1 [Example 356, 2-[(5-methyl-1,3,4-thiadiazol-2-yl)methoxy]-N-{4-[4-oxo-3-(phenylamino)-4,5,6,7-tetrahydro-1H-indol-2-yl]pyridin-2-yl}acetamide] |
